Source: ChEMBL document CHEMBL1201862, “PubChem BioAssay data set” (2004)
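Protocol summary: plate cells (96-well), add compound at 5 concentrations, incubate 48 h, interpolate endpoints linearly. Here, GI50 denotes the concentration required for 50% inhibition of growth.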 Calls of active or inactive are those of the source. No stated cut-off is given here; in the data, active = GI50 up to about 1.1 µM and inactive = higher.

Columns and labels:
Assay in all cases: NCI-60 cell line screen, 48 h
[1] = system: T47D
[2] = system: OVCAR-8
[3] = system: KM12
[4] = system: OVCAR-3
[5] = system: NCI-H460
[6] = system: HCT-116
[7] = system: HT-29
[8] = system: DU-145
[9] = system: IGROV-1
[10] = system: SNB-19
[11] = system: CAKI-1
[12] = system: OVCAR-5
[13] = system: LOX IMVI
[14] = system: TK-10
[15] = system: ACHN
[16] = system: CCRF-CEM
[17] = system: U-251
[18] = system: SK-MEL-2
[19] = system: A549
[20] = system: NCI/ADR-RES
[21] = system: OVCAR-4
[22] = system: SW-620
[23] = system: BT-549
[24] = system: EKVX
[25] = system: SK-OV-3
[26] = system: K562
[27] = system: HOP-62
[28] = system: HCT-15
[29] = system: Malme-3M
[30] = system: SN12C
[31] = system: NCI-H522
[32] = system: NCI-H226
[33] = system: RXF 393
[34] = system: MCF7
[35] = system: SF-295
[36] = system: SF-268
[37] = system: HOP-92
[38] = system: MDA-MB-435
[39] = system: UO-31
[40] = system: 786-0
[41] = system: NCI-H23
[42] = system: MDA-MB-231
[43] = system: SK-MEL-5
[44] = system: SK-MEL-28
[45] = system: MDA-N
[46] = system: Hs-578T
[47] = system: MOLT-4
[48] = system: COLO 205
[49] = system: RPMI-8226
[50] = system: A498
[51] = system: HCC 2998
[52] = system: M14
[53] = system: PC-3
[54] = system: UACC-62
[55] = system: SNB-75
[56] = system: SF-539
[57] = system: UACC-257
[58] = system: HL-60

CCN(CC)CCn1ncc2c(N)ncnc21
GI50 [1]: > 100 µM (inactive)
GI50 [2]: > 100 µM (inactive)
GI50 [3]: > 100 µM (inactive)
GI50 [4]: > 100 µM (inactive)
GI50 [5]: > 100 µM (inactive)
GI50 [6]: > 100 µM (inactive)
GI50 [7]: > 100 µM (inactive)
GI50 [8]: > 100 µM (inactive)
GI50 [9]: > 100 µM (inactive)
GI50 [10]: > 100 µM (inactive)
GI50 [11]: > 100 µM (inactive)
GI50 [12]: > 100 µM (inactive)
GI50 [13]: > 100 µM (inactive)
GI50 [14]: > 100 µM (inactive)
GI50 [15]: > 100 µM (inactive)
GI50 [16]: 34.7 µM (inactive)
GI50 [17]: > 100 µM (inactive)
GI50 [18]: > 100 µM (inactive)
GI50 [19]: > 100 µM (inactive)
GI50 [20]: > 100 µM (inactive)
GI50 [21]: > 100 µM (inactive)
GI50 [22]: > 100 µM (inactive)
GI50 [23]: > 100 µM (inactive)
GI50 [24]: > 100 µM (inactive)
GI50 [25]: > 100 µM (inactive)
GI50 [26]: > 100 µM (inactive)
GI50 [27]: > 100 µM (inactive)
GI50 [28]: > 100 µM
GI50 [29]: > 100 µM (inactive)
GI50 [30]: > 100 µM (inactive)
GI50 [31]: > 100 µM (inactive)
GI50 [32]: > 100 µM (inactive)
GI50 [33]: > 100 µM (inactive)
GI50 [34]: > 100 µM (inactive)
GI50 [35]: > 100 µM (inactive)
GI50 [36]: > 100 µM (inactive)
GI50 [37]: > 100 µM (inactive)
GI50 [38]: > 100 µM (inactive)
GI50 [39]: > 100 µM (inactive)
GI50 [40]: > 100 µM (inactive)
GI50 [41]: > 100 µM (inactive)
GI50 [42]: > 100 µM (inactive)
GI50 [43]: > 100 µM (inactive)
GI50 [44]: > 100 µM (inactive)
GI50 [45]: > 100 µM (inactive)
GI50 [46]: > 100 µM (inactive)
GI50 [47]: > 100 µM (inactive)
GI50 [48]: > 100 µM (inactive)
GI50 [49]: > 100 µM (inactive)
GI50 [50]: > 100 µM (inactive)
GI50 [51]: > 100 µM (inactive)
GI50 [52]: > 100 µM (inactive)
GI50 [53]: > 100 µM (inactive)
GI50 [54]: > 100 µM (inactive)

COC(=O)CN1Cc2cc(C)cc(c2O)CN(CC(=O)OC)Cc2cc(C)cc(c2O)CN(CC(=O)OC)Cc2cc(C)cc(c2O)C1
GI50 [1]: > 20.1 µM (inactive)
GI50 [2]: > 100 µM (inactive)
GI50 [3]: > 56.2 µM (inactive)
GI50 [4]: > 58.2 µM (inactive)
GI50 [5]: 0.272 µM (active)
GI50 [6]: 12.6 µM (inactive)
GI50 [7]: > 47.9 µM (inactive)
GI50 [8]: > 41 µM (inactive)
GI50 [9]: > 100 µM (inactive)
GI50 [10]: > 100 µM (inactive)
GI50 [11]: > 100 µM (inactive)
GI50 [12]: 26.4 µM (inactive)
GI50 [13]: > 65.8 µM (inactive)
GI50 [14]: > 79.8 µM (inactive)
GI50 [15]: > 47.1 µM (inactive)
GI50 [16]: 6.76 µM (inactive)
GI50 [17]: > 45.8 µM (inactive)
GI50 [18]: > 39.8 µM (inactive)
GI50 [19]: > 100 µM (inactive)
GI50 [20]: > 100 µM (inactive)
GI50 [21]: > 100 µM (inactive)
GI50 [22]: > 87.3 µM (inactive)
GI50 [23]: > 100 µM (inactive)
GI50 [55]: > 33.4 µM (inactive)
GI50 [24]: > 100 µM (inactive)
GI50 [25]: > 45.5 µM (inactive)
GI50 [26]: > 100 µM (inactive)
GI50 [27]: > 40.3 µM (inactive)
GI50 [28]: > 66.4 µM
GI50 [29]: > 100 µM (inactive)
GI50 [30]: > 100 µM (inactive)
GI50 [31]: > 100 µM (inactive)
GI50 [32]: > 37.4 µM (inactive)
GI50 [33]: > 33.7 µM (inactive)
GI50 [34]: > 42 µM (inactive)
GI50 [35]: > 61.8 µM (inactive)
GI50 [36]: > 100 µM (inactive)
GI50 [37]: > 81.8 µM (inactive)
GI50 [56]: > 80.2 µM (inactive)
GI50 [38]: > 100 µM (inactive)
GI50 [39]: > 44 µM (inactive)
GI50 [40]: > 100 µM (inactive)
GI50 [41]: > 100 µM (inactive)
GI50 [42]: > 36.8 µM (inactive)
GI50 [43]: > 57.5 µM (inactive)
GI50 [44]: 99.8 µM (inactive)
GI50 [45]: > 87.9 µM (inactive)
GI50 [46]: > 100 µM (inactive)
GI50 [57]: > 100 µM (inactive)
GI50 [47]: > 100 µM (inactive)
GI50 [48]: > 54.3 µM (inactive)
GI50 [49]: > 100 µM (inactive)
GI50 [50]: > 51.8 µM (inactive)
GI50 [51]: 2.03 µM (inactive)
GI50 [52]: > 37.8 µM (inactive)
GI50 [58]: 15.4 µM (inactive)
GI50 [53]: > 32.9 µM (inactive)
GI50 [54]: > 100 µM (inactive)
